Several values for one entry are separate records, joined by “and”; a condition that tells them apart may be missing. Equal values may be shown once.
Columns and labels:
[1] = system: Akt phosphorylation (pAkt/Akt); assay: Western blot pAkt/Akt in iAMs; type: cell-based, rat; conditions: for pAkt/Akt, relative to vehicle of the same time point: EF-1 32 µM, iAMs, single replicates
Method: Hearts of the aforementioned transgenic mice were removed immediately after the animals had been killed. Cells and heart tissue were collected in RIPA lysis buffer (Thermo Fisher Scientific, 89900) supplemented with protease inhibitors (Merck, 11836153001) and phosphatase inhibitors (Merck, 4906845001) and the lysates were centrifuged at 14,000 × g for 10 min. The supernatants were collected, supplemented with sample buffer, and incubated at 95 °C for 5 min. Protein quantification was done with Pierce^TM BCA Protein Assay Kits (Thermo Fisher, 23227) according to the manufacturer’s instructions. Equal protein amounts of clarified lysates (20 µg) were subsequently separated by sodium dodecyl sulfate (SDS) polyacrylamide gel electrophoresis (165 V, 400 mA, 60 min) and transferred onto polyvinylidene fluoride membranes by electroblotting (100 V, 400 mA, 90 min). Next, the membranes were incubated for 1 h with Li-Cor blocking buffer (Li-Cor, 927-60001) at RT in Tris-buffered saline (TBS), supplemented with 0.1% Tween (BIO-RAD, 1706531). Next, primary antibodies were added (see below and Table 1a) in Li-Cor blocking buffer supplemented with 0.1% Tween, and the membranes were incubated overnight at 4 °C on a shaker. Following washing with TBS-0.1% Tween, the membranes were incubated for 1 h at RT with corresponding IRDye-conjugated secondary antibodies (See below and Table 1b) in Li-Cor blocking buffer supplemented with […] and 0.1% Tween. The membrane was visualized with the Odessey imaging system.

[2] = system: mouse model of AngII-induced myocardial fibrosis; assay: AngII-induced myocardial fibrosis mouse model, 4 weeks, echocardiography, wild-type mice; type: in vivo
Method: (§1) Four weeks after implantation, cardiac ultrasound was performed, mice were euthanized, and hearts were collected. A similar set-up was used for the 1-week study (Alzet, model 1007D) in male mice (n = 9-10 mice in every group).
Echocardiography was performed using the Vevo F2-LAZRX (FUJIFILM VisualSonics) and UHF57x probe. Mice were anesthetized with 1.5% isoflurane (Alvira, BE-V512222). Parasternal long-axis B-mode images and M-mode images were obtained and analyzed using VevoLAB software (FUJIFILM VisualSonics, Version 5.7.1). For the AngII experiments, measurements were obtained through analysis of the short-axis M-mode. For the MI experiments, measurements were obtained through analysis of the parasternal long-axis B-mode, of which the area and end-volume of the left ventricular cavity in diastole and systole were determined by tracing the endocardial border. Acquisitions, measurements and analyses were performed blinded.
Supplementary Table 2. Echocardiographic parameters. Echocardiographic parameters obtained through the analysis of the M-mode short-axis views. (a) Male and (b) female wild-type mice treated […]
mice in EF-1 group). (c) Male wild-type mice treated with AngII and NA-1 (n=5 male mice in Ctrl and AngII/Veh group, n=4 male mice in AngII/NA -1 group). (d) Comparison between wild-type and Erbb4-null mice (n=10 male and female wild -type mice and n=6 male and female Erbb4-null mice). (e) Male […]
Echocardiographic parameters obtained through left ventricular trace analysis of the parasternal long-axis obtained in B-mode in female wild-type mice that underwent a sham or MI operation: mice with […]
in MI/EF-1 group). (g) Echocardiographic parameters obtained through left ventricular trace analysis of the parasternal long-axis obtained in B-mode in male wild-type mice that underwent a sham or MI […]
male mice in MI/Veh group for T2 and T4). Echocardiographic parameters were measured weekly (indicated by ‘T’). All data are presented as mean (value of individual mice) ± SD, two-tailed unpaired […]
1 groups. Source data are provided as a Source Data file. AngII, angiotensin II; ANOVA, analysis of variance; Ctrl, control; DOX, doxorubicin; EF, ejection fraction; ERBB4, erythroblastic leukemia viral oncogene homolog 4; FS, fractional shortening; IVSd, interventricular septum thickness in diastole; IVSs, interventricular septum thickness in systole; LVIDd, left ventricular internal diameter in diastole; LVIDs, left ventricular internal diameter in systole; LVPWd, left ventricular posterior wall thickness in diastole; LVPWs, left ventricular posterior wall thickness in systole; MI, myocardial infarction; NA, non-activating pharmacophore-containing compound; SD, standard variation; Veh, vehicle.

iAMs = assay: H2O2-induced cell death assay in iAMs (Toxilight), also with LY294002; conditions: for total cell death of iAMs (percentage of total dead cells): H2O2 100 µM, 4 h; for total cell death of iAMs (percentage of total dead cells) / total cell death of iAMs: single replicates
Method: Subsequently, H2O2 (100 µM; Merck, H1009) was added and the cells were incubated for 4 h at 37 °C. All wells contained DMSO at a final concentration of 0.9%. […] After incubation at RT for 5 min, luminescence was measured using the Luminoskan Ascent.

[3] = system: mouse model of AngII-induced myocardial fibrosis; assay: AngII-induced myocardial fibrosis mouse model, 4 weeks, Masson's trichrome fibrosis, wild type mice; type: in vivo; set-up: key to Total fibrosis male in vivo WT with EF-1 / Total fibrosis female in vivo WT with EF-1 / Total fibrosis male in vivo WT with NA-1: fibrotic (blue-stained) area / total area; conditions: for Perivascular fibrosis male in vivo WT with EF-1 / Total fibrosis male in vivo WT with EF-1: male wild type mice
Method: as §1
Hearts were fixed in 4% PFA, paraffin-embedded, and cut into 5-µm sections. Images were acquired with an Olympus BX43 microscope (Olympus Stream Motion Software) or a CELENA® S Digital Imaging System and analyzed with ImageJ 2.14.0 software. Collagen distribution was visualized by Masson’s trichrome staining. Cardiac total fibrosis was expressed as the ratio of positively stained fibrotic area (blue) to the total area and perivascular fibrosis as the ratio of fibrotic area to vascular lumen area. Scar size was determined by measuring the scar length over the […]. Hypertrophy and vascularisation were visualized via an isolectin-B4/WGA/DAPI staining. Quantification was performed by a person blinded to the treatment protocol.

[4] = Female wild-type mice, AngII/EF-1
[5] = Male wild-type mice, AngII/EF-1
[6] = Male wild-type mice, EF-1 without AngII
[7] = female wild-type mice, AngII/EF-1, 4 weeks, mean ± SD
[8] = male wild-type mice, AngII + compound 2 mg/kg/day, 4 weeks, mean ± SD
[9] = male wild-type mice, EF-1 group without AngII, 4 weeks, mean ± SD
[10] = female wild type mice, AngII/EF-1 group, individual animals
[11] = AngII/EF-1 group, individual animals
[12] = EF-1 group (no AngII), individual animals

O=C(NC1CC1)C(Sc1nc2ccccc2c(=O)n1C1CCCC1)c1ccccc1 (stereo not shown) [EF-1]
time of peak Akt phosphorylation ([1]; EF-1): 2 h
pAkt/Akt, relative to vehicle of the same time point ([1]; 0 minutes): 0.748 and 0.7404 and 0.672 and 0.9718
pAkt/Akt, relative to vehicle of the same time point ([1]; 15 minutes): 0.8783 and 0.9705 and 0.9844 and 0.887
pAkt/Akt, relative to vehicle of the same time point ([1]; 60 minutes): 1.284 and 1.335 and 1.4576 and 1.506
pAkt/Akt, relative to vehicle of the same time point ([1]; 120 minutes): 2.136 and 1.473 and 2.15 and 1.815
pAkt/Akt, relative to vehicle of the same time point ([1]; 240 minutes): 2.021 and 1.657 and 2.184 and 2.136
phosphorylation of Akt in iAMs (in words) ([1]; NRG1 10 nM or EF-1 32 µM): time-dependent phosphorylation of Akt
effect on cardiac dimensions on ultrasound (in words) ([2]; AngII model, both sexes): did not significantly alter cardiac dimensions
FS [2, 4]: 11.5 ± 5.5%
IVSd [2, 4]: 0.53 ± 0.07 mm
IVSs [2, 4]: 0.7 ± 0.1 mm
LVIDd [2, 4]: 4.2 ± 0.3 mm
LVIDs [2, 4]: 3.7 ± 0.4 mm
LVPWd [2, 4]: 0.5 ± 0.1 mm
LVPWs [2, 4]: 0.6 ± 0.1 mm
FS [2, 5]: 16.6 ± 3.6%
IVSd [2, 5]: 0.8 ± 0.1 mm
IVSs [2, 5]: 1.1 ± 0.2 mm
LVIDd [2, 5]: 4.4 ± 0.3 mm
LVIDs [2, 5]: 3.7 ± 0.4 mm
LVPWd [2, 5]: 0.8 ± 0.2 mm
LVPWs [2, 5]: 0.9 ± 0.2 mm
FS [2, 6]: 18.5 ± 5.1%
IVSd [2, 6]: 0.9 ± 0.1 mm
IVSs [2, 6]: 1.2 ± 0.1 mm
LVIDd [2, 6]: 4.2 ± 0.3 mm
LVIDs [2, 6]: 3.4 ± 0.3 mm
LVPWd [2, 6]: 0.75 ± 0.03 mm
LVPWs [2, 6]: 0.9 ± 0.1 mm
FS [2, 7]: 11.5 ± 5.5%
IVSd [2, 7]: 0.53 ± 0.07 mm
IVSs [2, 7]: 0.7 ± 0.1 mm
LVIDd [2, 7]: 4.2 ± 0.3 mm
LVIDs [2, 7]: 3.7 ± 0.4 mm
LVPWd [2, 7]: 0.5 ± 0.1 mm
LVPWs [2, 7]: 0.6 ± 0.1 mm
FS [2, 8]: 16.6 ± 3.6%
IVSd [2, 8]: 0.8 ± 0.1 mm
IVSs [2, 8]: 1.1 ± 0.2 mm
LVIDd [2, 8]: 4.4 ± 0.3 mm
LVIDs [2, 8]: 3.7 ± 0.4 mm
LVPWd [2, 8]: 0.8 ± 0.2 mm
LVPWs [2, 8]: 0.9 ± 0.2 mm
FS [2, 9]: 18.5 ± 5.1%
IVSd [2, 9]: 0.9 ± 0.1 mm
IVSs [2, 9]: 1.2 ± 0.1 mm
LVIDd [2, 9]: 4.2 ± 0.3 mm
LVIDs [2, 9]: 3.4 ± 0.3 mm
LVPWd [2, 9]: 0.75 ± 0.03 mm
LVPWs [2, 9]: 0.9 ± 0.1 mm
total cell death of iAMs (percentage of total dead cells) (iAMs; EF-1 + SiERBB4, 1e-6 M): 68.0221 and 60.0225 and 62.2886
total cell death of iAMs (percentage of total dead cells) (iAMs; EF-1 + SiERBB4, 4e-6 M): 72.51 and 56.29 and 70.83
total cell death of iAMs (percentage of total dead cells) (iAMs; EF-1 + SiERBB4, 8e-6 M): 69.73 and 50.25 and 72.39
total cell death of iAMs (percentage of total dead cells) (iAMs; EF-1 + SiERBB4, 1.6e-5 M): 67.67 and 53.83 and 80.13
total cell death of iAMs (percentage of total dead cells) (iAMs; EF-1 + SiERBB4, 3.2e-5 M): 64.65 and 55.01 and 72.56
total cell death of iAMs (percentage of total dead cells) (iAMs; EF-1 + SiScr, 1e-6 M): 62.2886 and 68.0221 and 60.0225
total cell death of iAMs (percentage of total dead cells) (iAMs; EF-1 + SiScr, 4e-6 M): 34.38 and 49.85 and 69.84
total cell death of iAMs (percentage of total dead cells) (iAMs; EF-1 + SiScr, 8e-6 M): 29.53 and 51.53 and 63.09
total cell death of iAMs (percentage of total dead cells) (iAMs; EF-1 + SiScr, 1.6e-5 M): 23.16 and 29.77 and 55.38
total cell death of iAMs (percentage of total dead cells) (iAMs; EF-1 + SiScr, 3.2e-5 M): 15.16 and 25.21 and 30.15
total cell death of iAMs (iAMs; H2O2/EF-1 (32 µM) + LY294002 (20 µM, 10 min pretreatment)): 37.778 and 30.0948 and 30.3358 and 33.2686
total cell death of iAMs (iAMs; H2O2/EF-1 (32 µM), without LY294002): 27.2571 and 19.0561 and 18.1394 and 25.7513
decrease of H2O2-induced cardiomyocyte cell death (iAMs; at its highest dose): more than 75%
Perivascular fibrosis female in vivo WT with EF-1 [3, 10]: 1.006 and 0.6567 and 0.4251 and 0.5106 and 0.5866 and 0.41 and 0.775 and 0.451
Total fibrosis female in vivo WT with EF-1 [3, 10]: 0.56 and 1.25 and 0.75 and 1.11 and 0.5 and 0.41 and 1.42 and 0.66
effect on AngII-induced interstitial and perivascular fibrosis (in words) ([3]; male and female wild type mice, EF-1 2 mg/kg/day, 4 weeks): significantly prevented both interstitial and perivascular fibrosis
Perivascular fibrosis male in vivo WT with EF-1 [3, 11]: 2.195 and 0.9604 and 0.7595 and 1.184 and 2.0179
Total fibrosis male in vivo WT with EF-1 [3, 11]: 1.541 and 0.4939 and 0.5555 and 0.9884 and 1.07
Perivascular fibrosis male in vivo WT with EF-1 [3, 12]: 0.7074 and 0.782 and 0.418 and 0.8908
Total fibrosis male in vivo WT with EF-1 [3, 12]: 0.8052 and 0.5165 and 0.1613 and 0.2053
